Data published in US20020107228A1, “Topical bisphosphonates for prevention of bone resorption” (Merck & Co., Inc, priority 1996, published 2002).

Tests used:
Wistar rats [1] = details: topical, 1 mm GELFOAM pellet soaked in 0.025 ml of 20 mg/ml alendronate in saline, in situ at least two hours; sacrifice 21 days after surgery; vs GELFOAM-only control side
Experimental: Wistar rats were used in the following experiment. The right side of the mandible was used as the experimental side and the left side was used as the control.
The rats were anesthetized prior to surgery using a mixture of 25 mg/kg body weight of KETALAR (Malgene, Lyon, France) and 42 mg/kg body weight of XYLAZINE (Rampun Bayer, Leverkusen, Germany) intraperitoneally (IP).
A mucoperiosteal flap was made on both the buccal and lingual aspects in the region of premolars and molars on both sides of the mandible, two quadrants per rat. The flap was elevated using a special small periosteal elevator. A 1 mm diameter piece of GELFOAM (Upjohn Co., Kalamazoo, Mich.) which was soaked in 0.025 ml alendronate solution (below) was applied to the alveolar bone on both buccal and lingual aspects on the experimental (right) side and the flap was then readapted immediately in place without sutures.
The alendronate solution was prepared by dissolving 20 mg alendronate in 1 ml saline.
A GELFOAM pellet of 1 mm diameter, identical to the alendronate-soaked pellet, but lacking the alendronate, was applied to the alveolar bone in the control side. The entire procedure lasted about 20-40 seconds. The GELFOAM pellets remained in situ for at least two hours while the anesthesia was effected. The rats were fed a soft diet for 24 hours after surgery to avoid flap displacement. […]

Wistar rats [2] = details: sacrifice 3 weeks after flap
Experimental: 63 Wistar rats were used in this experiment, and were divided into the four groups. Group A: 15 rats received 0.05 mg/kg body weight of alendronate. Group B: 15 rats received 0.25 mg/kg body weight of alendronate. Group C: 15 rats received 0.5 mg/kg body weight of alendronate. Group D was the control group, where 18 rats received saline. The alendronate sodium or saline was administered one week prior to surgery, at the day of surgery before the surgery was performed, and one week following surgery. The drug was administered IV in the dorsal vein of the penis.
In one experiment, one group of rats were anesthetized prior to surgery or alendronate administration using a mixture of 25 mg/kg body weight of KETALAR (Malgene, Lyon France), and 42 mg/kg body weight XYLAZINE (Rampun Bayer, Leverkusen, Germany) intraperitoneally (IP). A portion of these rats also received 25 mg/kg alendronate IP. […] The flap was elevated using a special small periosteal elevator, and readapted immediately in place without sutures. […]
In another set of experiments, alendronate was applied locally at three dose levels using a wet gauze sponge soaked with a solution of 0.15, 0.75, and 1.5 mg/ml on the exposed bone on the experimental side and saline on the exposed bone on the control side for 10 seconds. Since the sponge could absorb 0.1 ml, the maximum calculated amount of drug applied was 0.5 mg/kg body weight. […]

alveolar bone resorption = details: Yaffe et al. 1995, cited from earlier work

For `NCCCC(O)(P(=O)(O)O)P(=O)(O)O` [alendronate, 4-amino-1-hydroxy-butylidene 1,1,-bisphosphonic acid], the “bone resorption (alveolar bone, X-ray microradiography)” value (Wistar rats [1]) was “inhibited”, the “alveolar bone resorption (X-ray microradiography)” value (Wistar rats [2]; IV, all doses (0.05, 0.25, 0.5 mg/kg), one week before, day of and one week after surgery) was “reduced” and the “effect on reducing bone resorption (alveolar bone, X-ray microradiography)” value (Wistar rats [2]; applied locally for 10 seconds on alveolar bone during surgery, wet gauze sponge, 0.15, 0.75 and 1.5 mg/ml) was “no noticeable effect”. The “inhibiting bone resorption following surgery” value (alveolar bone resorption; alendronate solutions applied topically) was “not found to be effective” and the “amount of alveolar bone resorption following surgery” value (alveolar bone resorption; intravenous administration) was “reduce”.
